From patent US8173682B2, “Substituted pyridones as inhibitors of poly(ADP-ribose) polymerase (PARP)” (Aventis Pharmaceuticals Inc., priority 2004, dated 2012)
Structures can show the parent of a compound that is named as a salt.

Each compound was assayed against T1, recombinant human PARP (PARP1) (Homo sapiens, UniProt P09874) (assay: PARP enzyme assay, Method A (radioactivity or 'ELISA' enzyme assay with partially purified enzyme)). Settings: recombinant human PARP preparation, radioactive or ELISA enzyme assay.
T1 construct: Full length human PARP (PARP1) is assembled from PCR fragments; His6 tag with TEV site, from the pFastBac-HTb vector (own knowledge of the vector); made in house; host or cells: insect cells, baculovirus (Bac-to-Bac, Gibco-BRL)
T1 sequence (P09874 whole entry, the tested form may be a part): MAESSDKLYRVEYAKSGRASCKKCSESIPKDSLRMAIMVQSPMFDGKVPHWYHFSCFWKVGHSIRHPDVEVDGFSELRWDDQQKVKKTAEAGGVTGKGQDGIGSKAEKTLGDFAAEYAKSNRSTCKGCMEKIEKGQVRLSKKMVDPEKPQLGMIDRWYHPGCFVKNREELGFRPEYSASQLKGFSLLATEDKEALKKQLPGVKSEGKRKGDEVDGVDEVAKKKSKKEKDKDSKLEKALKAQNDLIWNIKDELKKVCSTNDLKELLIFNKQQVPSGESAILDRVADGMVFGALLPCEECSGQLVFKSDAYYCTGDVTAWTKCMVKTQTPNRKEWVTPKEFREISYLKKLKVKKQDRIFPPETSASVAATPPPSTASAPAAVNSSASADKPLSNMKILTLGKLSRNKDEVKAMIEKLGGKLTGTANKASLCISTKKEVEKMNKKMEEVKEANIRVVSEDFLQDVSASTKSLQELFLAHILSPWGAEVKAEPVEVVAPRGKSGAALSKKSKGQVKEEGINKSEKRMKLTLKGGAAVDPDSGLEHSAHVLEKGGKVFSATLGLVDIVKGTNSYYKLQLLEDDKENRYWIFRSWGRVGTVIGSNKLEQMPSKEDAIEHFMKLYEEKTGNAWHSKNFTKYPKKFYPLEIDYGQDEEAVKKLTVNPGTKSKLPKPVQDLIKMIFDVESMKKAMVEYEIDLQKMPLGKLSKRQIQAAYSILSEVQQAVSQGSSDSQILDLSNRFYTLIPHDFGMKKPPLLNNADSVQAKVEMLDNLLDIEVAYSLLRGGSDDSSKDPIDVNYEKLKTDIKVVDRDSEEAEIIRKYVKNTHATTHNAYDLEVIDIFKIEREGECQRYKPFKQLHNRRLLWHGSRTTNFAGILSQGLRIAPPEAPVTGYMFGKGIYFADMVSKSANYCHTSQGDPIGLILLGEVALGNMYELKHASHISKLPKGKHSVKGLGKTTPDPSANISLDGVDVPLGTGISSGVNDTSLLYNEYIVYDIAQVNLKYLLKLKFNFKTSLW
Assay type: biochemical
Text: Two different methods are employed in determining the activity of the compounds of this invention in inhibiting the activity of PARP enzyme, designated as Method A and Method B respectively as set forth below.
Method A: Cloning and Expression, and Partial Purification of Recombinant Human PARP:
Full length human PARP (PARP1) is assembled from PCR fragments of a clone from a human brain cDNA library and two Incyte clones. The PARP gene (3046 bp) is sub-cloned into pFastBac-HTb vector to give PARP-pFastBac-HTb and the sequence of this clone is verified. PARP-pFastBac-HTb is expressed to obtain protein using the Bac-to-Bac expression protocol from Gibco-BRL. The recombinant virus generated is used to scale up the material for purification.
Cell pellets from cell broth of cells expressing PARP are treated with a cocktail of protease inhibitors and lysed by 4 freeze-thaw cycles. The material is suspended in 10 mM HEPES/0.1M NaCl/pH 7.2, stirred, and then centrifuged. A 40%-70% ammonium sulfate cut of protein pellet is obtained from the supernatant. The pellet is solubilized in 10 mM HEPES/pH 7.2 and centrifuged. The supernatant buffer is exchanged to 10 mM HEPES/pH 7.2/0.1M NaCl/25% glycerol by dialysis or with a desalting column. The enzyme preparation is stored at −20° C. until use.
The compounds of this invention are then tested with this enzyme preparation using either the radioactive enzyme assay or by the “ELISA” enzyme assay as set forth below.
Radioactivity Enzyme Assay:
Incorporation of radioactivity from labeled NAD into acid-precipitated protein is measured. The reaction mixture (volume 100 μL or 50 μL, in a test-tube or 96-well plate) contained 100 μg/mL calf thymus DNA (sonicated), 100 μg/mL histones, 100 mM Tris (pH 8.0), 1.0 mM DTT, 10 mM MgCl2, NAD (200 μM, 0.65 microcurie/mL), and varying amounts of enzyme. The reaction was incubated for 10 min at 37° C. or at room temperature for 60 min. The reaction was stopped and protein precipitated by addition of ice-cold trichloroacetic acid (TCA; 10% or 20% aqueous w/v). After brief storage in ice or at 4° C. for 2 hrs, the reaction mixture is filtered under vacuum through a glass fiber filter (2.5 cm disc, or 96-well filter plate). After washing with TCA and ethanol, the filter is dried and counted for tritium CPM after addition of scintillation fluid.
Incorporation of biotin-NAD into histone coated on plate is measured. A 96-well protein-binding EIA plate is coated with histone and blocked with bovine serum albumin. The reaction mixture (50 μL) contained DNA, buffer, enzyme, (test compound), and 250 μM of NAD and 5 μL of biotin-NAD (Trevigen). After reaction at room temperature the wells are washed and treated with Extravidin (Sigma). After incubation and washing color is developed with the peroxidase substrate TMB (Sigma). The TMB reaction is quenched with 2M sulfuric acid and the absorbance at 450 nm is read.

SMILES | IC50 [µM]
CCc1cc(-c2ccc(CNC3CCCCC3)s2)c(C)[nH]c1=O [Example 190, 5-(5-Cyclohexylaminomethylthiophen-2-yl)-3-ethyl-6-methyl-1H-pyridin-2-one hydrochloride] | 0.54
CCc1cc(-c2ccc(S(=O)(=O)N3CCOCC3)s2)c(C)[nH]c1=O [Example 86, 3-Ethyl-6-methyl-5-[5-(morpholine-4-sulfonyl)thiophen-2-yl]-1H-pyridin-2-one] | 4.5
CCc1cc(-c2ccc(CN3CCC(N4CCCCC4)CC3)s2)c(C)[nH]c1=O [Example 129, 5-(5-[1,4′]Bipiperidinyl-1′-ylmethyl-thiophen-2-yl)-3-ethyl-6-methyl-1H-pyridin-2-one dihydrochloride] | 1.8
CCc1cc(-c2ccc(S(=O)(=O)NCc3ccco3)s2)c(C)[nH]c1=O [Example 97, 5-(5-Ethyl-2-methyl-6-oxo-1,6-dihydropyridin-3-yl)-thiophene-2-sulfonic acid (furan-2-ylmethyl)amide] | 0.18
CCc1cc(-c2ccc(S(=O)(=O)N3CCN(Cc4ccc5c(c4)OCO5)CC3)s2)c(C)[nH]c1=O [Example 104, 5-[5-(4-1,3-Benzodioxol-5-ylmethylpiperazine-1-sulfonyl)-thiophen-2-yl]-3-ethyl-6-methyl-1H-pyridin-2-one hydrochloride] | 2.5
CCc1cc(-c2ccc(CNC3CCN(Cc4ccccc4)CC3)s2)c(C)[nH]c1=O [Example 151, 5-{5-[(1-Benzyl-piperidin-4-ylamino)-methyl]thiophen-2-yl}-3-ethyl-6-methyl-1H-pyridin-2-one dihydrochloride] | 0.92
CCc1cc(-c2ccc(CNC(=O)CN3CCCC3)s2)c(C)[nH]c1=O [Example 176, N-[5-(5-Ethyl-2-methyl-6-oxo-1,6-dihydropyridin-3-yl)thiophen-2-ylmethyl]-2-(pyrrolidin-1-yl)acetamide hydrochloride] | 0.28
CCc1cc(-c2ccc(CNCc3ccc(OC)cc3)s2)c(C)[nH]c1=O [Example 169, 5-{5-[(4-Methoxybenzylamino)methyl]thiophen-2-y}]-3-ethyl-6-methyl-1H-pyridin-2-one hydrochloride] | 0.6
CCc1cc(-c2ccc(S(=O)(=O)N3CCN(CCN4CCCCC4)CC3)s2)c(C)[nH]c1=O [Example 57, 3-Ethyl-6-methyl-5-{5-[4-(2-piperidin-1-yl)ethylpiperizine-1-sulfonyl]thiophen-2-yl}-1H-pyridin-2-one dihydrochloride] | 5.7
CCc1cc(-c2ccc(CN3CCCC(CO)C3)s2)c(C)[nH]c1=O (centres unmarked) [Example 131, 3-Ethyl-5-[5-(3-hydroxymethyl-piperidin-1-ylmethyl)-thiophen-2-yl]-6-methyl-1H-pyridin-2-one hydrochloride] | 0.47
CCc1cc(-c2ccc(CNC(=O)CN(C)C)s2)c(C)[nH]c1=O [Example 177, 2-Dimethylamino-N-[5-(5-ethyl-2-methyl-6-oxo-1,6-dihydropyridin-3-yl)thiophen-2-ylmethyl]acetamide hydrochloride] | 0.49
CCc1cc(-c2ccc(S(=O)(=O)NCC3CCNCC3)s2)c(C)[nH]c1=O [Example 41-2, 5-[5-Ethyl-2-methyl-6-oxo-(1,6-dihydropyridin-3-yl)]thiophene-2-sulfonic acid (piperidin-4-yl)methylamide hydrochloride] | 0.52
CCc1cc(-c2ccc(CNC3CC3)s2)c(C)[nH]c1=O [Example 142, 5-(5-Cyclopropylaminomethyl-thiophen-2-yl)-3-ethyl-6-methyl-1H-pyridin-2-one hydrochloride] | 2.1
CCc1cc(-c2ccc(CNCCc3cnc[nH]3)s2)c(C)[nH]c1=O [Example 155, 3-Ethyl-5-(5-{[(2-(3H-imidazol-4-yl)ethylamino]methyl}thiophen-2-yl)-6-methyl-1H-pyridin-2-one dihydrochloride] | 0.71
CCc1cc(-c2ccc(CNC3CCN(c4nccc(C(F)(F)F)n4)CC3)s2)c(C)[nH]c1=O [Example 139, dihydrochloride] | 2.6
CCc1cc(-c2ccc(CN3CCC(F)C3)s2)c(C)[nH]c1=O (centres unmarked) [Example 173, 5-{5-[(3-Fluoropyrrolidin-1-ylmethyl)(thiophen-2-yl)-3-ethyl-6-methyl-1H-pyridin-2-one hydrochloride] | 0.22
CCc1cc(-c2ccc(CN3CCC(N4CCCC4)CC3)s2)c(C)[nH]c1=O [Example 160, 3-Ethyl-6-methyl-5-[5-(4-pyrrolidin-1-ylpiperidin-1-ylmethyl)-thiophen-2-yl]1-1H-pyridin-2-one dihydrochloride] | 1.7
CCc1cc(-c2ccc(CNCCc3cccnc3)s2)c(C)[nH]c1=O [Example 163, 3-Ethyl-6-methyl-5-{5-{[(pyridin-3-ylethyl)amino]methyl}thiophen-2-yl)-1H-pyridin-2-one dihydrochloride] | 1.7
CCc1cc(-c2cccc(C#N)c2)c(C)[nH]c1=O [Example 1, 3-(5-Ethyl-2-methyl-6-oxo-1,6-dihydropyridin-3-yl)benzonitrile] | 0.4
CCc1cc(-c2ccc(S(=O)(=O)N3CCN(Cc4ccccc4)CC3)s2)c(C)[nH]c1=O [Example 100, 5-[5-(4-Benzylpiperazine-1-sulfonyl)thiophen-2-yl]-3-ethyl-6-methyl-1H-pyridin-2-one hydrochloride] | 2.2
CCc1cc(-c2ccc(CNCc3cccc(C(F)(F)F)c3F)s2)c(C)[nH]c1=O [Example 178, 3-Ethyl-5-{5-[(2-fluoro-3-trifluoromethylbenzylamino)methyl](thiophen-2-yl)-6-methyl-1H-pyridin-2-one hydrochloride] | 0.4
CCc1cc(-c2ccc(S(=O)(=O)NCc3nccn3C)s2)c(C)[nH]c1=O [Example 80, 5-[5-Ethyl-2-methyl-6-oxo-1,6-dihydropyridin-3-yl]thiophene-2-sulfonic acid (1-methylimidazol-2-yl)methyl]amide hydrochloride] | 0.43
CCc1cc(-c2ccc(CNC(C)C(C)C)s2)c(C)[nH]c1=O (centres unmarked) [Example 147, 5-{5-[(3-methylbut-2-ylamino)methyl]thiophen-2-yl}-3-ethyl-6-methyl-1H-pyridin-2-one hydrochloride] | 0.49
CCc1cc(-c2ccc(S(=O)(=O)N3CCN(c4ccccn4)CC3)s2)c(C)[nH]c1=O [Example 116, 3-Ethyl-6-methyl-5-{5-[(4-pyridin-2-yl)piperazine-1-sulfonyl]thiophen-2-yl}-1H-pyridin-2-one hydrochloride] | 0.45
CCOC(=O)N1CCN(S(=O)(=O)c2ccc(-c3cc(CC)c(=O)[nH]c3C)s2)CC1 [Example 89, 4-[5-(5-Ethyl-2-methyl-6-oxo-1,6-dihydropyridin-3-yl)thiophene-2-sulfonyl]piperazine-1-carboxylic acid ethyl ester] | 10.8
CCc1cc(-c2ccc(CNCCO)s2)c(C)[nH]c1=O [Example 128, 3-Ethyl-5-{5-[(2-hydroxy-ethylamino)-methyl]thiophen-2-yl}-6-methyl-1H-pyridin-2-one hydrochloride] | 0.46
CCc1cc(-c2ccc(S(=O)(=O)NCc3ccc(N(C)C)nc3)s2)c(C)[nH]c1=O [Example 78, 5-(5-Ethyl-2-methyl-6-oxo-1,6-dihydropyridin-3-yl)thiophene-2-sulfonic acid [(6-dimethylaminopyridin-3-yl)methyl]amide hydrochloride] | 0.2
CCc1cc(-c2ccc(CNCCOC)s2)c(C)[nH]c1=O [Example 138, 3-Ethyl-5-{5-[(2-methoxyethylamino)-methyl]thiophen-2-yl}-6-methyl-1H-pyridin-2-one hydrochloride] | 0.63
CCc1cc(-c2ccc(CN3CCC(F)(F)C3)s2)c(C)[nH]c1=O [Example 172, 5-{5-[(3,3-Difluoropyrrolidin-1-ylmethyl)(thiophen-2-yl)-3-ethyl-6-methyl-1H-pyridin-2-one hydrochloride] | 1
